The target in one assay is CDK2/Cyclin A (Homo sapiens, UniProt P24941). Briefly: Inhibition of CDK2/Cyclin A Retinoblastoma Kinase Activity. The assay is classed as biochemical. Conditions: apparent Ki, CDK2/proteolyzed cyclin A, Rb fragment substrate, 25 μM ATP. A digest of the protocol: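 Human CDK2, baculovirus/insect-cell expressed, complexed with proteolyzed cyclin A (10 nM or 19 nM CDK2) phosphorylates an Rb fragment with 25 μM [32P/33P]ATP at pH 7.4, 30° C, for 60 or 75 minutes under initial-rate conditions. Filter-captured radioactivity is read by phosphorimager; apparent Ki from competitive-inhibition fits.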

Assay [1] addresses human CDK4 and genetically truncated (1-264) cyclin D3 (Homo sapiens, UniProt P11802). Description: Inhibition of CDK4/Cyclin D Retinoblastoma Kinase Activity. The assay is classed as biochemical. To be noted: apparent Ki, CDK4/truncated cyclin D3, Rb fragment substrate, 25 μM ATP. The method in brief:
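Read-out: 32P/33P incorporation into Rb fragment (386-928) captured on nitrocellulose, phosphorimager. Enzyme 5 nM CDK4/cyclin D3(1-264) from insect cells; ATP 25 μM, pH 7.4, 30 °C, 20 min (60 min for tight binders). Ki from competitive fits.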

The subject of a further assay is HCT-116 cell line. Briefly: Inhibition of cell growth, tetrazolium salt (MTT) assay. Type of assay: cell-based. Conditions: Homo sapiens, HCT-116, 120 h, MTT, three to five days, read-out: HCT-116 IC50. The method in brief: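 Growth inhibition by MTT reduction at 540 nm (0.2 mg/mL, 4 h at 37° C, formazan dissolved in DMSO), normalized to cells given only 0.5% v/v DMSO. HCT-116 cultures in McCoy's 5A were dosed 4 h post-plating and kept three to five days at 37° C, 5% CO2.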

Counter-ions that a name gives are not always drawn. Like-named read-outs stand apart in the source and are kept apart here.

Experimental findings from US20050101595A1, “N-containing cycloalkyl-substituted amino-thiazole derivatives and pharmaceutical compositions for inhibiting cell proliferation and methods for their use” (PFIZER INC., priority 2003, published 2005) are described below.

Chain of human CDK4 and genetically truncated (1-264) cyclin D3 (P11802 whole entry, the tested form may be a part): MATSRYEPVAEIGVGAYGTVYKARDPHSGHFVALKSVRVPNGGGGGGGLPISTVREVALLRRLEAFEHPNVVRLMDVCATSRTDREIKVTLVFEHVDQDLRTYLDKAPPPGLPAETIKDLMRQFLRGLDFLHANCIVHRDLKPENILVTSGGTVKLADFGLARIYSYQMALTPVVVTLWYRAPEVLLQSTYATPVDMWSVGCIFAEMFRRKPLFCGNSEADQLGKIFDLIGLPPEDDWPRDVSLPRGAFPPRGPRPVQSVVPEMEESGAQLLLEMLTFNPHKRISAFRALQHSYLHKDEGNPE
Chain of human CDK4 and genetically truncated (1-264) cyclin D3 (P30281 1-264 partner): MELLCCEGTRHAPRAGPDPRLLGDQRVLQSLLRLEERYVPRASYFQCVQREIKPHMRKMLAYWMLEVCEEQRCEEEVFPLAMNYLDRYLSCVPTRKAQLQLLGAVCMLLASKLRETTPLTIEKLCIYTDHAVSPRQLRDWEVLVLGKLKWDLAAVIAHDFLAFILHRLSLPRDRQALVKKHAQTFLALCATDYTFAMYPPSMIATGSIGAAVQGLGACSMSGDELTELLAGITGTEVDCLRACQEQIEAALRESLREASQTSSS

As a reminder, the IC50 is the midpoint of a concentration-inhibition curve. Turning to `CN(C)CC#Cc1ccc(S(=O)(=O)N2CCC(Nc3nc(N)c(C(=O)c4c(F)cccc4F)s3)CC2)cn1` [Example I11, 1-(4-Amino-2-{1-[6-(3-dimethylamino-prop-1-ynyl)-pyridine-3-sulfonyl]-piperidin-4-ylamino}-thiazol-5-yl)-1-(2,6-difluoro-phenyl)-methanone], the Ki at CDK2/Cyclin A was less than 0.5 nM; in assay [1], 0.5 nM. In addition, the IC50 was found to be 16 nM in the assay on HCT-116 cell line (first HCT-116 column (c4)) and 25 nM in the assay with HCT-116 cell line (second HCT-116 column (c5)).

Consider `CN(C)CCCc1ccc(S(=O)(=O)N2CCC(Nc3nc(N)c(C(=O)c4c(F)cccc4F)s3)CC2)cn1` [Example I12, 1-(4-Amino-2-{1-[6-(3-dimethylamino-propyl)-pyridine-3-sulfonyl]-piperidin-4-ylamino}-thiazol-5-yl)-1-(2,6-difluoro-phenyl)-methanone], for which the Ki at CDK2/Cyclin A stood at 1.3 nM; in assay [1], 1.1 nM. Further, the IC50 in the assay on HCT-116 cell line (first HCT-116 column (c4)) stood at 300 nM; in the assay with HCT-116 cell line (second HCT-116 column (c5)) it was 3400 nM.

Turning to `Nc1nc(NC2CCN(S(=O)(=O)c3ccc(CCCN4CCCC4)nc3)CC2)sc1C(=O)c1c(F)cccc1F` [Example I13, 1-(4-Amino-2-{1-[6-(3-pyrrolidin-1-yl-propyl)-pyridine-3-sulfonyl]-piperidin-4-ylamino}-thiazol-5-yl)-1-(2,6-difluoro-phenyl)-methanone Trifluoroacetic Acid Salt], the Ki on CDK2/Cyclin A is 1.3 nM; in assay [1] it was 0.45 nM. The IC50 in the assay on HCT-116 cell line (first HCT-116 column (c4)) was 280 nM; in the assay on HCT-116 cell line (second HCT-116 column (c5)), 600 nM.

With `Nc1nc(NC2CCN(S(=O)(=O)c3ccc(CCCN4CCCCC4)nc3)CC2)sc1C(=O)c1c(F)cccc1F` [Example I14, 1-(4-Amino-2-{1-[6-(3-piperidin-1-yl-propyl)-pyridine-3-sulfonyl]-piperidin-4-ylamino}-thiazol-5-yl)-1-(2,6-difluoro-phenyl)-methanone Trifluoroacetic Acid Salt], the Ki on CDK2/Cyclin A amounted to 1.2 nM; in assay [1], 0.57 nM. For the same molecule, the 50% inhibitory concentration (IC50) with HCT-116 cell line (first HCT-116 column (c4)) was determined as 140 nM; in the assay with HCT-116 cell line (second HCT-116 column (c5)), 300 nM.

For `CN1CCN=C1c1ccc(S(=O)(=O)N2CCC(Nc3nc(N)c(C(=O)c4c(F)cccc4F)s3)CC2)cc1` [Example J1, 1-[4-Amino-2-{1-[4-(1-methyl-4,5-dihydro-1H-imidazol-2-yl)-benzenesulfonyl]-piperidin-4-ylamino}-thiazol-5-yl)-1-(2,6-difluoro-phenyl)-methanone], the Ki on CDK2/Cyclin A was less than 1 nM; in assay [1] it was 0.63 nM. Further, the IC50 in the assay on HCT-116 cell line (first HCT-116 column (c4)) amounted to 1200 nM; in the assay with HCT-116 cell line (second HCT-116 column (c5)), 5000 nM.

Consider `CC1(C)CN=C(c2ccc(S(=O)(=O)N3CCC(Nc4nc(N)c(C(=O)c5c(F)cccc5F)s4)CC3)cc2)N1` [Example J2, 1-(4-Amino-2-{1-[4-(5,5-dimethyl-4,5-dihydro-1H-imidazol-2-yl)-benzenesulfonyl]-piperidin-4-ylamino}-thiazol-5-yl)-1-(2,6-difluoro-phenyl)-methanone], for which the Ki is less than 1 nM on CDK2/Cyclin A and 0.18 nM in assay [1]. Besides, the IC50 in the assay on HCT-116 cell line (first HCT-116 column (c4)) turned out to be 500 nM; in the assay on HCT-116 cell line (second HCT-116 column (c5)), 1800 nM.

`N=C(N)c1ccc(S(=O)(=O)N2CCC(Nc3nc(N)c(C(=O)c4c(F)cccc4F)s3)CC2)cc1` [Example J3, 4-(4-{4-Amino-5-[1-(2,6-difluoro-phenyl)-methanoyl]-thiazol-2-ylamino}-piperidine-1-sulfonyl)-benzamidine]: the figures for the Ki (at CDK2/Cyclin A; in assay [1]) were less than 1 nM and 0.25 nM, respectively. Also, the IC50 with HCT-116 cell line (first HCT-116 column (c4)) and in the assay with HCT-116 cell line (second HCT-116 column (c5)) was greater than 5000 nM throughout.

For the molecule `Nc1nc(NC2CCN(S(=O)(=O)c3ccc(-c4nnn[nH]4)cc3)CC2)sc1C(=O)c1c(F)cccc1F` [Example J4, 1-(4-Amino-2-{1-[4-(1H-tetrazol-5-yl)-benzenesulfonyl]-piperidin-4ylamino}-thiazol-5-yl)-1-(2,6-difluoro-phenyl)-methanone Trifluoroacetic Acid Salt], the Ki was less than 1 nM at CDK2/Cyclin A and 1.7 nM in assay [1]. The IC50 in the assay with HCT-116 cell line (first HCT-116 column (c4)) and in the assay with HCT-116 cell line (second HCT-116 column (c5)) was greater than 5000 nM in each case.

With `Nc1nc(NC2CCN(S(=O)(=O)c3ccc(C4=NCCO4)cc3)CC2)sc1C(=O)c1c(F)cccc1F` [Example J5, 1-(4-Amino-2-{1-[4-(4,5-dihydro-oxazol-2-yl)-benzenesulfonyl]-piperidin-4-ylamino}-thiazol-5-yl)-1-(2,6-difluoro-phenyl)-methanone], the values for the Ki (at CDK2/Cyclin A; in assay [1]) were 2.8 nM and 3.9 nM, respectively. Also, the IC50 in the assay on HCT-116 cell line (first HCT-116 column (c4)) was determined as 210 nM; in the assay with HCT-116 cell line (second HCT-116 column (c5)) it was 480 nM.

In the case of `Nc1nc(NC2CCN(S(=O)(=O)c3ccc(CN4CCCC4)cc3)CC2)sc1C(=O)c1c(F)cccc1F` [Example J6, 1-{4-Amino-2-[1-(4-pyrrolidin-1-ylmethyl-benzenesulfonyl)-piperidin-4-ylamino]-thiazol-5-yl}-1-(2,6-difluoro-phenyl)-methanone Hydrochloride], the Ki at CDK2/Cyclin A was less than 1 nM; in assay [1], 0.58 nM. Further, the IC50 with HCT-116 cell line (first HCT-116 column (c4)) was 390 nM; with HCT-116 cell line (second HCT-116 column (c5)) it was 2000 nM.

For `CN1CCN(Cc2ccc(S(=O)(=O)N3CCC(Nc4nc(N)c(C(=O)c5c(F)cccc5F)s4)CC3)cc2)CC1` [Example J7], the Ki worked out at 1.9 nM on CDK2/Cyclin A and 0.78 nM in assay [1]. In addition, the values for the IC50 with HCT-116 cell line (first HCT-116 column (c4)) and with HCT-116 cell line (second HCT-116 column (c5)) were 130 nM and 300 nM, respectively.

Take `Nc1nc(NC2CCN(S(=O)(=O)c3ccc(CN4CCOCC4)cc3)CC2)sc1C(=O)c1c(F)cccc1F` [Example J8, 1-{4-Amino-2-[1-(4-morpholin4-ylmethyl-benzenzsulfonyl)-piperidin-4-ylamino]-thiazol-5-yl}-1-(2,6-difluoro-phenyl)-methanone Hydrochloride Salt]: the Ki was 1.3 nM on CDK2/Cyclin A and 1.2 nM in assay [1]. The concentration for half-maximal inhibition (IC50) came to 98 nM with HCT-116 cell line (first HCT-116 column (c4)) and 400 nM with HCT-116 cell line (second HCT-116 column (c5)).

`CN(C)CCN(C)Cc1ccc(S(=O)(=O)N2CCC(Nc3nc(N)c(C(=O)c4c(F)cccc4F)s3)CC2)cc1` [Example J9, 1-{4-Amino-2-[1-(4-{[(2-dimethylamino-ethyl)-methyl-amino]-methyl}-benzenesulfonyl)-piperidin-4-ylamino]-thiazol-5-yl}-1-(2,6-difluoro-phenyl)-methanone Hydrochloride Salt.]: the Ki on CDK2/Cyclin A amounted to 2.4 nM; in assay [1] it was 0.85 nM. Further, the IC50 worked out at 130 nM in the assay with HCT-116 cell line (first HCT-116 column (c4)) and 320 nM in the assay on HCT-116 cell line (second HCT-116 column (c5)).

Take `C[C@@H]1CN(Cc2ccc(S(=O)(=O)N3CCC(Nc4nc(N)c(C(=O)c5c(F)cccc5F)s4)CC3)cc2)C[C@H](C)N1` [Example J10, 1-{4-Amino-2-{1-[4-(3,5-dimethyl-piperazin-1-ylmethyl)-benzenesulfonyl]-piperidin-4-ylamino}-thiazol-5-yl)-1-(2,6-difluoro-phenyl)-methanone Hydrochloride Salt.]: the Ki on CDK2/Cyclin A was 1.7 nM; in assay [1], 0.39 nM. Besides, the values for the half-inhibitory concentration (IC50) with HCT-116 cell line (first HCT-116 column (c4)) and with HCT-116 cell line (second HCT-116 column (c5)) were 160 nM and 2900 nM, respectively.

Turning to `C[C@@H]1CN(CCCS(=O)(=O)N2CCC(Nc3nc(N)c(C(=O)c4c(F)cccc4F)s3)CC2)C[C@H](C)N1` [Example K1, 1-(4-Amino-2-{1-[3-(3,5-cis-dimethylpiperazin-1-yl)-propane-1-sulfonyl]-piperidin-4-ylamino}-thiazol-5-yl)-1-(2,6-difluoro-phenyl)-methanone], the figures for the Ki (on CDK2/Cyclin A; in assay [1]) were 7.8 nM and 2 nM, respectively. For the same molecule, the IC50 in the assay with HCT-116 cell line (first HCT-116 column (c4)) and in the assay on HCT-116 cell line (second HCT-116 column (c5)) was greater than 5000 nM each time.

As for `Nc1nc(NC2CCN(S(=O)(=O)CCCn3ccnc3)CC2)sc1C(=O)c1c(F)cccc1F` [Example K2], the Ki on CDK2/Cyclin A was 6.3 nM; in assay [1], 4.7 nM. For the same molecule, the IC50 in the assay with HCT-116 cell line (first HCT-116 column (c4)) was 2300 nM; with HCT-116 cell line (second HCT-116 column (c5)) it was greater than 5000 nM.

As for `CN(C)CCCS(=O)(=O)N1CCC(Nc2nc(N)c(C(=O)c3c(F)cccc3F)s2)CC1` [Example K4, 1-(4-Amino-2-{1-[3-(dimethylamino)propane-1-sulfonyl]-piperidin-4-ylamino}-thiazol-5-yl)-1-(2,6-difluoro-phenyl)-methanone.], the values for the Ki (on CDK2/Cyclin A; in assay [1]) were 1.8 nM and 1.3 nM, respectively. The IC50 with HCT-116 cell line (first HCT-116 column (c4)) stood at 410 nM; with HCT-116 cell line (second HCT-116 column (c5)) it was 1500 nM.

Consider `Nc1nc(NC2CCN(S(=O)(=O)CCCN3CCc4ccccc4C3)CC2)sc1C(=O)c1c(F)cccc1F` [Example K5, 1-(4-Amino-2-{1-[3-(3,4-dihydro-1H-isoquinolin-2-yl)propane-1-sulfonyl]-piperidin-4-ylamino}-thiazol-5-yl)-1-(2,6-difluoro-phenyl)-methanone.], for which the Ki on CDK2/Cyclin A came out at 1 nM; in assay [1] it was 1.5 nM. In addition, the IC50 was 140 nM with HCT-116 cell line (first HCT-116 column (c4)) and 580 nM in the assay with HCT-116 cell line (second HCT-116 column (c5)).

Regarding `CCCN(CCCS(=O)(=O)N1CCC(Nc2nc(N)c(C(=O)c3c(F)cccc3F)s2)CC1)CC1CC1` [Example K6, 1-(4-Amino-2-{1-[3-(cyclopropylmethyl-propyl-amino)propane-1-sulfonyl]-piperidin-4-ylamino}-thiazol-5-yl)-1-(2,6-difluoro-phenyl)-methanone.], the Ki on CDK2/Cyclin A was 5.8 nM; in assay [1] it was 1.5 nM. For the same molecule, the results for the IC50 in the assay on HCT-116 cell line (first HCT-116 column (c4)) and with HCT-116 cell line (second HCT-116 column (c5)) were 180 nM and 800 nM, respectively.
